One data set has as its system LS P. berghei. Briefly: Liver stage P. berghei infection of Huh7 hepatoma cells. The settings on record: for Effect on P. berghei infection of Huh7 cells: 48 h treatment, Fig. 1. Format: cell-based, Plasmodium berghei.
The test system of another data set is zebrafish larvae liver. The experiment in a line: Hepatotoxicity in zebrafish larvae. The format is in vivo, zebrafish (Danio rerio). The settings on record: 6 dpf; for Hepatotoxic effects / liver phenotype at the MTC: 2-HDA 0.8 μM, 2-ODA 1 μM, 2-TDA 1.2 μM.
In data set [1] the target is T1, PfFabI (Plasmodium falciparum, UniProt Q9BH77).
T1 sequence (Q9BH77 22-432): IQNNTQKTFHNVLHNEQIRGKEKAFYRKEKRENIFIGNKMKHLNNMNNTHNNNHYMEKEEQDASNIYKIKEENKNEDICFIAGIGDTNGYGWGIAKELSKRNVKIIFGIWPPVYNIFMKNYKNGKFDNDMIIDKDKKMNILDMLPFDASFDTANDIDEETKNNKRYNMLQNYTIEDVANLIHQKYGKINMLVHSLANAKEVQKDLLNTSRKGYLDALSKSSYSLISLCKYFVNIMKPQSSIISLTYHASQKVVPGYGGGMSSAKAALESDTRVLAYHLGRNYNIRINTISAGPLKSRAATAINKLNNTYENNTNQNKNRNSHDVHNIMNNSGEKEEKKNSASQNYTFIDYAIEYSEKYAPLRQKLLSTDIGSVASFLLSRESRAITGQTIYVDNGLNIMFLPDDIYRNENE
The settings on record: values marked **, ref [3] (table footnote), [5], cited from earlier work.

For data set [2], the target named is T2, PfFabZ (Plasmodium falciparum, UniProt Q965D7).
T2 sequence (Q965D7 19-230): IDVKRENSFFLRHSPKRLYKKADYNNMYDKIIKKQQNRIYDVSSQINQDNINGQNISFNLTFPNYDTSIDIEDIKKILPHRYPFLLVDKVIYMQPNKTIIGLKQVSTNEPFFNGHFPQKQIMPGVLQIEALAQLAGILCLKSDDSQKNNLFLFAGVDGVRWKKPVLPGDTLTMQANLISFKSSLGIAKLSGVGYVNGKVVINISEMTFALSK
The settings on record: values marked **, ref [3] (table footnote), [5], cited from earlier work.

The subject of data set [3] is BS P. falciparum K1. The conditions noted are these: K1 strain; values marked **; ref [3] (table footnote), [5]; cited from earlier work.
The subject of the next data set is L6 cells. The settings on record: cited from earlier work.
Data set [4] deals with T2, PfFabZ. Briefly: PfFabZ enzyme inhibition assay. The format is biochemical, P. falciparum.
Data set [5] has as its target T3, PfFabG (Plasmodium falciparum, UniProt Q8I2S7). Briefly: PfFabG enzyme inhibition assay. Format: biochemical, P. falciparum.
For data set [6], the system named is BS P. falciparum K1. Briefly: Blood stage antiplasmodial activity, 3H-hypoxanthine method. Format: cell-based. The settings on record: Plasmodium falciparum, K1, read-out: IC50 BS P. falciparum.
The test system of the next data set is Huh7 cells. Briefly: Host cell viability of Huh7 cells. Format: cell-based, human. The settings on record: Alamar Blue; up to the highest test concentrations.
Data set [7] concerns the target Leishmania topoisomerase IB enzyme. The settings on record: read-out: EC50 Leishmania topoisomerase IB; ref [4]; cited from earlier work.
The next data set relates to zebrafish larvae. The experiment in a line: General toxicity in zebrafish larvae. The conditions noted are these: treated 3 to 6 dpf, MTC at 6 dpf.
The target in data set [8] is T1, PfFabI. Briefly: PfFabI enzyme inhibition assay. Format: biochemical, P. falciparum.
The target of data set [9] is PfFAS-II enzymes PfFabI, PfFabZ, PfFabG. Briefly: PfFAS-II enzyme inhibition, range over PfFabI, PfFabZ and PfFabG. The conditions noted are these: range over the three enzymes. The format is biochemical, P. falciparum.
For another data set, the system named is Leishmania donovani. The conditions noted are these: read-out: EC50 against Leishmania donovani; ref [4]; cited from earlier work.
The conditions of data set [10]: ref [6]; cited from earlier work.
For data set [11], the target named is T3, PfFabG. The settings on record: values marked **; ref [3] (table footnote), [5]; cited from earlier work.
In data set [12] the test system is LS forms of Plasmodium yoelii. The conditions noted are these: ref [5], cited from earlier work.
The mark [13] stands for this setting: rat skeletal myoblasts, values marked *, ref [2].

The values that follow come from PMC4146677 (Bioorganic & medicinal chemistry letters, 2014).

Values after ≈ are worked out from the molar mass of the structure shown. Values joined by “and” are separate entries in the source; they are usually repeats but may differ in a detail not shown here. Equal values may be shown once. “Also recorded” adds a separate entry of the source. Read-outs that look alike come from different tables or passages of the source. Marks after values point to notes of the source that are not given here.

The IC50 is the midpoint of a concentration-inhibition curve. In the case of `CCCCCCCCCCCCCCCC(=O)O` [PA, palmitic acid, reference compound], the “LS activity at the highest test concentration” value in the data set on LS P. berghei (25 μg/ml) is “devoid of any LS activity”. In addition, the “Hepatotoxic effects / liver phenotype” value in the data set with zebrafish larvae liver (3 days of exposure, 700 μM = 179.2 μg/ml) was “no hepatotoxic effects; also recorded: normal liver”. Also, the IC50 on PfFabI [1] (read-out: IC50 PfFabI) and at PfFabZ [2] (read-out: IC50 PfFabZ) was more than 390 µM throughout. Further, the “IC50 BS P. falciparum” value with BS P. falciparum K1 [3] is given as 3.8** μg/ml. The “IC50 L6 cell toxicity” value in the data set on L6 cells is 52.7** μg/ml.

Regarding `COc1cc([C@@H]2c3cc4c(cc3[C@H](O)[C@H]3COC(=O)[C@H]23)OCO4)cc(OC)c1OC` [Podophyllotoxin, reference compound], the “IC50 L6 cell toxicity” value in the data set with L6 cells (setting [13]) was 0.02^e,* μg/ml.

What is called EC50 is the concentration that produces a half-maximal response. Take `CCCCCCCCCCCC#CC(=O)O` [2-TDA, 2-tetradecynoic acid]: the “Effect on P. berghei infection of Huh7 cells” value in the data set with LS P. berghei is reported as “greatly impaired infection”. At PfFabZ [4], the “IC50 PfFabZ” value is 3.5 µg/mL (≈ 15.6 µM). For the same compound, the “IC50 PfFabG” value on PfFabG [5] turned out to be 5.5 µg/mL (≈ 24.5 µM). Besides, in the data set on BS P. falciparum K1 [6], the half-inhibitory concentration (IC50) stood at 27.3 µg/mL (≈ 122 µM). In addition, the “Effect on cell viability of Huh7 host cells” value in the data set with Huh7 cells was “no apparent effects on cell viability”. The “Hepatotoxic effects / liver phenotype at the MTC” value in the data set with zebrafish larvae liver (3 days of exposure) was “induced liver toxicity; also recorded: round-shaped liver with reduced fluorescence”. In addition, the “Hepatotoxic effects / liver phenotype” value in the data set on zebrafish larvae liver (1.0 μM = 0.22 μg/ml, below the MTC) is recorded as “did not induce any apparent signs of liver toxicity”. Further, in data set [7], the EC50 is 68 µM. In the data set with L6 cells (setting [13]), the “IC50 L6 cell toxicity” value is listed as 9.2* μg/ml. For the same compound, the “Maximum-tolerated concentration (MTC)” value in the data set with zebrafish larvae turned out to be 0.27 µg/mL.

`CCN(CC)CCCC(C)Nc1ccnc2cc(Cl)ccc12` (stereo not drawn) [Chloroquine, reference compound]: the half-inhibitory concentration (IC50) with BS P. falciparum K1 [6] came to 0.117 µg/mL (≈ 0.366 µM).

In the case of `CCCCCCCCCCCCCCCC#CC(=O)O` [2-ODA, 2-octadecynoic acid], the “Effect on P. berghei infection of Huh7 cells” value in the data set with LS P. berghei is reported as “greatly impaired infection”. Besides, the “IC50 PfFabI” value against PfFabI [8] is 0.30 µg/mL (≈ 1.07 µM). Besides, the “IC50 PfFabZ” value at PfFabZ [4] was found to be 0.28 µg/mL (≈ 0.998 µM). Also, at PfFabG [5], the “IC50 PfFabG” value is 0.80 µg/mL (≈ 2.85 µM). Also, the “IC50 values against PfFabI, PfFabZ and PfFabG (range)” value in data set [9] is 0.28 to 0.80 µg/mL. For the same compound, the “Effect on cell viability of Huh7 host cells” value in the data set on Huh7 cells is listed as “no apparent effects on cell viability”. For the same compound, in the data set on zebrafish larvae liver (3 days of exposure), the “Hepatotoxic effects / liver phenotype at the MTC” value is “non-hepatotoxic; also recorded: normal liver”. For the same compound, the EC50 in the data set with Leishmania donovani was 11 µM; in data set [7], 5 µM. Moreover, the “Critical micelle concentration (CMC)” value in data set [10] is 50 µg/mL. Also, the “IC50 L6 cell toxicity” value with L6 cells (setting [13]) is on record as 5.6* μg/ml.

Consider 2-hexadecynoic acid [2-HDA], for which, in the data set on zebrafish larvae liver (3 days of exposure), the “Hepatotoxic effects / liver phenotype at the MTC” value is recorded as “non-hepatotoxic; also recorded: normal liver”. Moreover, the “IC50 PfFabI” value at PfFabI [1] is 0.38** μg/ml. Also, the “IC50 PfFabZ” value at PfFabZ [2] is on record as 0.58** μg/ml. Also, the “IC50 PfFabG” value on PfFabG [11] is recorded as 3.5** μg/ml. The “IC50 BS P. falciparum” value in the data set with BS P. falciparum K1 [3] is given as 10.4** μg/ml. Further, the EC50 in the data set on Leishmania donovani was 17.8 µM; in [7], 28 µM. Further, in [10], the “Critical micelle concentration (CMC)” value was more than 90 µg/mL. Besides, the “IC50 LS P. yoelii” value in [12] (assessed by flow cytometry) was 15.3 µg/mL; in [12] (assessed by immunofluorescence activity), 4.88 µg/mL. Further, the “IC50 L6 cell toxicity” value in the data set on L6 cells is reported as 85.9** μg/ml. Besides, in the data set with zebrafish larvae, the “Maximum-tolerated concentration (MTC)” value is 0.20 μg/ml and 0.8 μM.

As for `CC(=O)Nc1ccc(O)cc1` [paracetamol, reference compound], the “Hepatotoxic effects / liver phenotype” value in the data set on zebrafish larvae liver (3 days of exposure, 300 μM, positive control) is recorded as “smaller-sized liver”.
